Patent publication US20060293374A1, “Substituted isothiazolones” (priority 2005, published 2006)

What was measured:
Neutrophil LTB4 [1] = assay: Neutrophil LTB4 assay (calcium ionophore challenge, EIA); assay type: cell-based; details: human neutrophils, calcium ionophore 1 μM
[2] = tested on: TXB2 Released by Human Platelets; assay: Ionophore and arachidonic acid induced TXB2 released by human platelets (EIA); assay type: cell-based; details: human platelet-rich plasma; for IC50: challenge with calcium ionophore (10 μM) or arachidonic acid (50 μM)
Protocol: Ionophore and Arachidonic Acid Induced TXB2 Released by Human Platelets
The plate was incubated for 15 minutes at 37° C. Following incubation, platelets were challenged with calcium ionophore (final 10 μM) or arachidonic acid (AA) (final 50 μM) and the plate was further incubated at 37° C. for 15 min. The plate was transferred to an ice bed for 5 min in order to stop the reaction. Supernatants were assayed for TXB2 production by EIA (Assay Design Inc) after diluting with assay buffer (Assay Design Inc).

Neutrophil LTB4 [3] = assay: Neutrophil LTB4 assay (calcium ionophore challenge, EIA); assay type: cell-based; details: Neutrophil; test concentration of 5 μM; human neutrophils, calcium ionophore 1 μM; read-out: LTB4 percent inhibition
Protocol: Neutrophils purified from human blood were resuspended in HBSS buffer containing calcium and magnesium to a cell density of 1×10^6/mL. Purified neutrophils were then incubated with test compounds at a test concentration of 5 μM for 15 min at 37° C. Following incubation, the cells were challenged with calcium ionophore (1 μM final) for 15 minutes at 37° C. Negative control wells were incubated with equal volume of vehicle. The reaction was stopped by transferring the plate to ice for 5 minutes. The plate was centrifuged at 1500 RPM for 5 min at 4° C. LTB4 was calculated in cell free supernatants by EIA (Assay Design Inc).

[4] = tested on: PMA Induced Acute Ear Edema; assay: PMA induced acute ear edema (mouse); assay type: in vivo; details: ear punch weight 6 h after PMA; for % Inh (percent inhibition of edema): test compound applied topically at about 1% to about 10%, 10 min before PMA
Protocol: PMA Induced Acute Ear Edema
PMA was prepared […] in an acetone:water mixture (99:1). 10 μL of 200 ng/10 μL was applied to the left ears of the mice. Control mice received 10 μL of vehicle. Test compounds were dissolved in the vehicle and applied at a test concentration of from about 1% to about 10% (depending on solubility) at 10 min before PMA application. β-methasone (1%) was used as a control. Six hours after the PMA application, mice were sacrificed and 6 mm ear punch biopsies were removed and weighed to assess edema.

| SMILES | melting point | IC50 (Neutrophil LTB4 [1]) | IC50 [2] | inhibition at 5 µM (Neutrophil LTB4 [3]) | % Inh (percent inhibition of edema) [4] | β-methasone control, percent inhibition of edema ([4]; β-methasone (1%) used as control) | inhibition at 1 µM ([2]; test concentration of 1 μM, calcium ionophore or arachidonic acid challenge, read-out: TXB2 percent inhibition) |
| --- | --- | --- | --- | --- | --- | --- | --- |
| Cc1nc(-c2ccc(Cn3sccc3=O)cc2)cs1 [Cpd 26, 2-[4-(2-methyl-thiazol-4-yl)-benzyl]-isothiazol-3-one] | 150.5 to 152 °C | 1.7 µM | 0.4 µM | – | – | – | – |
| O=c1cc(Cl)sn1Cc1sc2ccccc2c1Cl [Cpd 6, 5-chloro-2-(3-chloro-benzo[b]thiophen-2-ylmethyl)-isothiazol-3-one] | 118 to 120 °C | – | 0.71 µM | 70% | – | – | – |
| O=C(c1ccccc1)c1ccc(Cn2sccc2=O)cc1 [Cpd 51, 2-(4-benzoylbenzyl)-isothiazol-3-one] | – | – | 1.2 µM | 90% | 84% | – | – |
| O=c1ccsn1Cc1ccc(-n2cc(Cl)cn2)cc1 [Cpd 57, 2-[4-(4-chloro-pyrazol-1-yl)-benzyl]-isothiazol-3-one] | – | – | 3 µM | 100% | 100% | – | – |
| Cc1nc(-c2cccc(Cn3sccc3=O)c2)cs1 [Cpd 48, 2-[3-(2-methyl-thiazol-4-yl)benzyl]-isothiazol-3-one] | – | 1.5 µM | 1.5 µM | – | – | – | – |
| O=c1ccsn1Cc1cc2ccccc2s1 [Cpd 9, 2-benzo[b]thiophen-2-ylmethyl-isothiazol-3-one] | 144 to 146 °C | – | 1.8 µM | 84% | 72% | – | – |
| O=c1ccsn1Cc1cccc2ccccc12 [Cpd 2, 2-naphthalen-1-ylmethyl-isothiazol-3-one] | 121 to 125 °C | – | 3 µM | 81% | – | – | – |
| O=c1cc(Cl)sn1Cc1cc2ccccc2s1 [Cpd 7, 2-benzo[b]thiophen-2-ylmethyl-5-chloro-isothiazol-3-one] | 101 to 103 °C | – | 0.46 µM | 95% | – | – | – |
| O=c1cc(Cl)sn1Cc1ccc2c(c1)CCO2 [Cpd 16, 5-chloro-2-(2,3-dihydro-benzofuran-5-ylmethyl)-isothiazol-3-one] | 100 to 102 °C | – | 0.25 µM | 97% | – | – | – |
| C[C@H]1C[C@H]2[C@@H]3CCC4=CC(=O)C=C[C@]4(C)[C@@]3(F)[C@@H](O)C[C@]2(C)[C@@]1(O)C(=O)CO [β-methasone, reference compound] | – | – | – | – | – | 100% | – |
| Cc1nc(-c2cccc(-n3sccc3=O)c2)cs1 [Cpd 46, 2-[3-(2-methyl-thiazol-4-yl)-phenyl]-isothiazol-3-one] | – | – | 1 µM | 64% | – | – | – |
| COC(=O)c1ccc(Cn2sc(Cl)cc2=O)cc1 [Cpd 37, 4-(5-chloro-3-oxo-3H-isothiazol-2-ylmethyl)-benzoic acid methyl ester] | – | – | 0.5 µM | 95% | – | – | – |
| O=c1ccsn1Cc1ccc(-c2csnn2)cc1 [Cpd 22, 2-(4-[1,2,3]thiadiazol-4-yl-benzyl)-isothiazol-3-one] | – | – | 1.2 µM | 50% | – | – | – |
| O=c1cc(Cl)sn1Cc1ccc(-c2csnn2)cc1 [Cpd 21, 5-chloro-2-(4-[1,2,3]thiadiazol-4-yl-benzyl)isothiazol-3-one] | 152 to 154 °C | – | 1 µM | 87% | – | – | – |
| O=c1c(Cl)c(Cl)sn1Cc1ccc(-c2csnn2)cc1 [Cpd 24, 4,5-dichloro-2-(4-[1,2,3]thiadiazol-4-yl-benzyl)-isothiazol-3-one] | – | – | 0.5 µM | 52% | – | – | – |
| O=c1ccsn1Cc1csc(-c2cccs2)n1 [Cpd 64, 2-(2-thiophen-2-yl-thiazol-4-ylmethyl)-isothiazol-3-one] | – | – | – | 89% | – | – | 39% |
| Cc1nc(-c2cccc(-n3sc(Cl)cc3=O)c2)cs1 [Cpd 47, 5-chloro-2-[3-(2-methyl-thiazol-4-yl)-phenyl]-isothiazol-3-one] | – | – | 1 µM | 100% | – | – | – |
| O=c1cc(Cl)sn1CC1CCCc2ccccc21 (stereo not shown) [Cpd 4, 5-chloro-2-(1,2,3,4-tetrahydro-naphthalen-1-ylmethyl)-isothiazol-3-one] | – | – | 3.3 µM | 100% | – | – | – |
| O=c1ccsn1Cc1sc2ccccc2c1Cl [Cpd 8, 2-(3-chloro-benzo[b]thiophen-2-ylmethyl)-isothiazol-3-one] | – | – | 1.4 µM | 74% | – | – | – |
| O=c1ccsn1Cc1cccc(-c2ccco2)c1 [Cpd 49, 2-(3-furan-2-yl-benzyl)-isothiazol-3-one] | 78 to 80 °C | – | 1.2 µM | 100% | – | – | – |
| O=c1cc(Cl)sn1Cc1ccc(-n2cc(Cl)cn2)cc1 [Cpd 55, 5-chloro-2-[4-(4-chloro-pyrazol-1-yl)-benzyl]-isothiazol-3-one] | – | – | 3.2 µM | 72% | – | – | – |
